Laboratory results from US20230321133A1, “COMPOSITIONS AND METHODS FOR TREATING BACTERIAL INFECTIONS” (THE TRUSTEES OF DARTMOUTH COLLEGE, priority 2020, published 2023).
In brackets after ≈: the same amount, converted by molar mass. Where two headings read alike, the source gives them in different places.

Key:
P. aeruginosa proteins = assay: Unbiased proteomic (LC-MS/MS) analysis of P. aeruginosa exposed to EV; format: cell-based, Pseudomonas aeruginosa; details: 0.1 μg/ml aztreonam
Excerpt: EV targets MexGHI-OpmD, a multidrug efflux pump that contributes to resistance to fluoroquinolone antibiotics including ciprofloxacin. Hyper-expression of RND multidrug efflux pumps is frequent in clinical isolates of P. aeruginosa and contributes to the development of multi-drug resistance phenotypes in the clinical setting^17. To determine if EV containing let-7b target and reduce MexGHI-OpmD, an unbiased proteomic (LC-MS/MS) approach was used, as previously described 27.
Column 1-Genes involved in biofilm formation (PhzE1 and PhzE2 have been identified as targets of let-7b in preliminary experiments). Column 2-Percent change in protein abundance induced by EV, determined by LC-MS/MS. Column 3-IntaRNA targeting score for let-7b for each biofilm gene, indicating a highly energetically favorable interaction between let-7b and the target mRNA^51.
[…]. […] According to the comprehensive antibiotic resistance database (CARD)57, eight of the 15 aztreonam-induced proteins have homology to beta-lactam resistance proteins in other bacteria. […]. […] This prediction is consistent with our observed phenotype of EV inhibition of biofilm formation. […].

[1] = tested on: P. aeruginosa strain PA14 biofilm; assay: Crystal violet biofilm plate assay, strain PA14; details: for sub-inhibitory antibiotic concentration for biofilm formation: PA14, absence of EVs; for biofilm formation, antibiotics alone: PA14, aztreonam 0.1 μg/ml or carbenicillin 5 μg/ml, no EVs
Method: Studies were also conducted to examine the time course of EV inhibition of biofilm formation using the crystal violet plate assay. […] Studies were conducted to determine if EV increase the ability of 3-lactam antibiotics to inhibit planktonic growth and biofilm formation by P. aeruginosa using the crystal violet biofilm plate assay^64. The subthreshold concentration of ATM (0.1 μg/ml) and CAR (5 μg/ml) for biofilm formation by P. aeruginosa in the absence of EV was determined.

[2] = tested on: planktonic P. aeruginosa strain PA14; assay: Planktonic growth yield assays, MIC and NIC of aztreonam; format: cell-based, Pseudomonas aeruginosa; details: for MIC: Pseudomonas aeruginosa, read-out: minimal inhibitory concentration (MIC)
[3] = tested on: clinical isolates of P. aeruginosa; assay: Crystal violet biofilm plate assay, clinical isolates; details: six clinical isolates, carbenicillin 20 μg/ml, absence of EVs
Method: It was also assessed whether EVs increase the ability of aztreonam to inhibit biofilm formation by clinical isolates of P. aeruginosa.

SMILES | PA14_48790 and PA14_16020 abundance (P. aeruginosa proteins) | beta-lactamase AmpC abundance (P. aeruginosa proteins; 16 hours, p<0.05) | number of proteins significantly induced by at least 50% (P. aeruginosa proteins; p<0.05 and log 2 fold change>0.58, in addition to AmpC) | sub-inhibitory antibiotic concentration for biofilm formation [1] [µg/mL] | biofilm formation, antibiotics alone [1] | planktonic growth ([2]; PA14, aztreonam 0.8 μg/ml alone compared to controls) | non-inhibitory concentration (NIC) ([2]; PA14, control (no EVs)) [µg/mL] | non-inhibitory concentration (NIC) ([2]; PA14, with EVs) [µg/mL] | MIC ([2]; PA14, PA14, control (no EVs)) [µg/mL] | MIC ([2]; PA14, PA14, with EVs) [µg/mL] | biofilm formation [3]
C[C@H]1[C@H](NC(=O)/C(=N\OC(C)(C)C(=O)O)c2csc(N)n2)C(=O)N1S(=O)(=O)O [aztreonam] | significantly induced | significantly induced | 15 | 0.1 | did not significantly alter | significantly reduced | 0.6 | 0.1 | 2 (≈ 4.59 µM) | 0.8 (≈ 1.84 µM) | 
CC1(C)S[C@@H]2[C@H](NC(=O)C(C(=O)O)c3ccccc3)C(=O)N2[C@H]1C(=O)O (stereo partly shown) [carbenicillin] |  |  |  | 5 | did not significantly alter |  |  |  |  |  | did not significantly reduce
